Results published in paper PMC6968641, “N-monoarylacetothioureas as potent urease inhibitors: synthesis, SAR, and biological evaluation” (Journal of Enzyme Inhibition and Medicinal Chemistry, 2019).

Experiments:
H. pylori urease = target: T1, H. pylori urease (Helicobacter pylori, UniProt P69996); assay: Urease inhibition, extracted H. pylori urease (indophenol method); assay type: biochemical; conditions: for IC50: IC50 Extracted urease, extracted H. pylori urease
T1 construct: endogenous in cells; host or cells: H. pylori ATCC 43504; sonicated, supernatant desalted on Sephadex G-25 (crude extract)
T1 sequence (P14916 whole entry): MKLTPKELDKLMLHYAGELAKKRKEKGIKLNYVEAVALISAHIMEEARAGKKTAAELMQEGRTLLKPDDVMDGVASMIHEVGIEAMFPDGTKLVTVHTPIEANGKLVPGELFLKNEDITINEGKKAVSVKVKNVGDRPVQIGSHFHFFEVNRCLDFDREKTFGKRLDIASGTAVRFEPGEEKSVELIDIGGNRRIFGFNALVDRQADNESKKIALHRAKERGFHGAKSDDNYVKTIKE
T1 sequence (P69996 whole entry): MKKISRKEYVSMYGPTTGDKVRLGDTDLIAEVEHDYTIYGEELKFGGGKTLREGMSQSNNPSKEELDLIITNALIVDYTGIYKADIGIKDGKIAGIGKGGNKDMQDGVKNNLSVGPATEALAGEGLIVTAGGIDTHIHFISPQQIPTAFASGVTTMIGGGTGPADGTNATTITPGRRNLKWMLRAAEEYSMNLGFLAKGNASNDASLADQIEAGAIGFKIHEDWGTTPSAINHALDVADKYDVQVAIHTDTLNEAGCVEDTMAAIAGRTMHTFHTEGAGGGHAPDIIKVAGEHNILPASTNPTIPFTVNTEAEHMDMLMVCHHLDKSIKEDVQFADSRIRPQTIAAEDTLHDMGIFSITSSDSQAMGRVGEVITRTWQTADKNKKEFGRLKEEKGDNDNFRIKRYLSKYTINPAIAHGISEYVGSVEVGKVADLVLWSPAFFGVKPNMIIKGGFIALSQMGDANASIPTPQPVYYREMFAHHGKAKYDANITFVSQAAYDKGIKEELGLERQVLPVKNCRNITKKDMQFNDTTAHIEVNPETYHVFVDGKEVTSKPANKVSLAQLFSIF
Procedure: For urease inhibition assays, 50 mL broth cultures (2.0 × 10^8 CFU/mL) were centrifuged (5000×g, 4 °C) to collect the bacteria, and after washing twice with phosphate-buffered saline (pH 7.4), the H. pylori precipitation was stored at –80 °C for 8 h, and then was returned to room temperature, and after addition of 3 mL of distilled water and protease inhibitors, sonication was performed for 60 s. Following centrifugation (15,000×g, 4 °C), the supernatant was desalted through Sephadex G-25 column (PD-10 columns, Amersham Pharmacia Biotech, Uppsala, Sweden). The resultant crude urease solution was added to an equal volume of glycerol and stored at 4 °C until use in the experiment.
Urease activity was determined in the 96-well assay plate by measuring ammonia production using the indophenol method as described by Weatherburn[20]. Briefly, to each well, 50 µL of urea (10 mM) in phosphate buffer solution was added in a mixture of 25 µL (10 U) of H. pylori urease and 25 µL of the test compound, which was incubated at 37 °C for 0.5 h. Fifty µL of phenol reagent (containing 127 mM phenol and 0.168 mM sodium nitroprusside) and 50 µL of alkali reagent (containing 125 mM NaOH and 0.168 mM NaOCl) were added in turn. The resulted mixture was incubated at 37 °C for another 0.5 h for colouration developing. The increasing absorbance was measured at 630 nm after 50 min using a microplate reader (Molecular Devices, San Jose, CA). Percentage inhibitions were calculated from the following formula (Equation (1)). Experiments were performed in triplicate and AHA was used as reference drug, and the IC50 value was determined as the concentration of compound that give 50% inhibition of maximal activity. As for the urease assay of intact cells, 25 µL (10 U) of H. pylori urease was replaced by 25 µL of cell suspension (4.0 × 10^7 CFU/mL).

| SMILES | IC50 (H. pylori urease) | melting point | fold decrease in potency relative to b19, extracted urease (H. pylori urease; ratio of IC50 values vs b19) |
| --- | --- | --- | --- |
| NC(=S)NC(=O)Cc1cccc(Br)c1 [b2] | 58.4 ± 4.3 µM | 207.4 to 208.8 °C | – |
| NC(=S)NC(=O)Cc1ccc(Cl)c(Cl)c1 [b3] | 63 ± 4.6 µM | 202.1 to 203.4 °C | – |
| COc1cccc(CC(=O)NC(N)=S)c1 [b5] | 75.8 ± 5.7 µM | 184.5 to 186.1 °C | – |
| NC(=S)NC(=O)Cc1ccccc1F [b6] | 41.9 ± 2.5 µM | 157.2 to 159 °C | – |
| NC(=S)NC(=O)Cc1cccc(Cl)c1 [b7] | 63.6 ± 5.1 µM | 136.6 to 137.4 °C | 397 fold |
| NC(=S)NC(=O)Cc1cccc(C(F)(F)F)c1 [b9] | 136 ± 7 µM | 204.3 to 205.8 °C | – |
| NC(=S)NC(=O)Cc1ccccc1Cl [b13] | 54.2 ± 4.8 µM | 148.8 to 151.2 °C | – |
| NC(=S)NC(=O)Cc1cccc(F)c1 [b14] | 50.3 ± 3.5 µM | 126 to 127.4 °C | – |
| NC(=S)NC(=O)Cc1ccccc1Br [b15] | 51.1 ± 4.4 µM | 179 to 179.5 °C | – |
| COc1ccccc1CC(=O)NC(N)=S [b17] | 55.7 ± 3.1 µM | 135.4 to 136.9 °C | – |
| Cc1ccccc1CC(=O)NC(N)=S [b18] | 46.2 ± 1.8 µM | 135.6 to 137.1 °C | – |
| NC(=S)NC(=O)Cc1ccccc1[N+](=O)[O-] [b20] | 183 ± 12 µM | 177.6 to 178.4 °C | – |
| NC(=S)NC(=O)Cc1ccc(Cl)cc1Cl [b21] | 67.7 ± 4.3 µM | 166.6 to 167.2 °C | – |
| NC(=S)NC(=O)Cc1ccc([N+](=O)[O-])cc1 [b22] | 155 ± 16 µM | 199.1 to 200.9 °C | – |
| NC(=S)NC(=O)Cc1ccc2ccccc2c1 [b24] | – | 202.6 to 204.4 °C | – |
| NC(=S)NC(=O)C(c1ccccc1)c1ccccc1 [b25] | 318 ± 24 µM | 169.5 to 172.7 °C | – |
| NC(=S)NC(=O)Cc1ccc(-c2ccccc2)cc1 [b26] | 279 ± 16 µM | 187.3 to 189.6 °C | – |
| NC(=S)NC(=O)Cc1cccc2ccccc12 [b27] | – | 195.5 to 197.9 °C | – |
| NC(=S)NC(=O)Cc1ccc2c(c1)OCO2 [b28] | 98 ± 5 µM | 153.5 to 155 °C | – |
